Common to all, as to assay type: in vivo
One data set concerns transplanted rice plant. Nature of the data set: Test Example 1: effect on crop, application before weed generation in submerged conditions (symbol a). Conditions: application herbicide amount 320 g/ha. In a few lines:
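Rice at 2.5 leaf stage transplanted into submerged soil (4 cm depth) sown with three weed species; herbicide applied before weed emergence.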

Data set [1] concerns Abutilon theophrasti. The data set can be described thus: Test Example 5: herbicidal effect by foliage application, plastic box (symbol M). Conditions: 320 g/ha, 3 weeks after application. In a few lines:
(§1)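 Emulsion formulation, diluted with water to the intended rate, was applied uniformly to leaves by small sprayer. Recipients were 14-day greenhouse-grown seedlings (25° C. to 30° C.). Assessment followed at 3 weeks.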

The test system of data set [2] is soybean. Nature of the data set: Test Example 5: effect on crop by foliage application, plastic box (symbol d). Conditions: 320 g/ha, 3 weeks after application. In a few lines: (§2)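 Crop seed is sown alongside grass and broadleaf weed species in spots in sterilized diluvial soil, then covered to a depth of about 1.5 cm. Plants grow in a greenhouse kept at 25° C. to 30° C.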

Data set [3] concerns directly sowed rice plant. The data set can be described thus: Test Example 3: effect on crop by foliage application, Wagner pot (symbol b). Conditions: application herbicide amount 320 g/ha; for b (directly sowed rice plant) effect on crop grade: Table 24. In a few lines:
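Steps: fill a 1/10000-are Wagner pot with alluvial soil; add water and mix to submerge at 0.1–0.5 cm depth; sow rice plus Echinochloa crus-galli var. crus-galli, Leptochloa chinensis and Cyperus difformis; grow in a 25–30 °C greenhouse.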

The test system of the next data set is Chenopodium album. Nature of the data set: Test Example 4: herbicidal effect by soil treatment (symbol O). Conditions: for O: Chenopodium album, herbicidal effect grade: 320 g/ha; for Herbicidal effect grade, O: Chenopodium album: application herbicide amount 320 g/ha. In a few lines:
(§3)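 Seeds were sown in sterilized diluvial soil, covered with about 1.5 cm of soil, and the soil surface was sprayed with a water-diluted emulsion of the compound at a predetermined rate. Plants grew in a greenhouse at 25° C. to 30° C.; effects were scored visually 3 weeks after application.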

The next data set relates to Veronica persica. The data set can be described thus: Test Example 5: herbicidal effect by foliage application, plastic box (symbol R). Conditions: 320 g/ha, 3 weeks after application. In a few lines: as §1
Data set [4] deals with Abutilon theophrasti. Nature of the data set: Test Example 4: herbicidal effect by soil treatment (symbol M). Conditions: for M: Abutilon theophrasti, herbicidal effect grade: 320 g/ha; for Herbicidal effect grade, M: Abutilon theophrasti: application herbicide amount 320 g/ha. In a few lines: as §3
Data set [5] has as its system Echinochloa oryzacola Vasing. The data set can be described thus: Test Example 1: herbicidal activity, application before weed generation in submerged conditions (symbol A). Conditions: application herbicide amount 320 g/ha. In outline: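 Weed control was rated three weeks after treatment on a 0–5 scale, from 5% or lower up to 90% or more. Pre-emergence water-surface application of diluted emulsion at a predetermined rate was made on the day of sowing, in flooded (4 cm water) pots containing rice seedlings, kept at 25–30 °C under glass.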

In another data set the test system is Galium spurium. The data set can be described thus: Test Example 4: herbicidal effect by soil treatment (symbol Q). Conditions: for Q: Galium spurium, herbicidal effect grade: 320 g/ha; for Herbicidal effect grade, Q: Galium spurium: application herbicide amount 320 g/ha. In outline:
as §3

In a further data set the test system is corn. The data set can be described thus: Test Example 5: effect on crop by foliage application, plastic box (symbol c). Conditions: 320 g/ha, 3 weeks after application. In outline:
as §2

In another data set the test system is Digitaria ciliaris. Nature of the data set: Test Example 5: herbicidal effect by foliage application, plastic box (symbol F). Conditions: 320 g/ha, 3 weeks after application. In a few lines:
as §1

For data set [6], the system named is Echinochloa crus-galli var. crus-galli. The data set can be described thus: Test Example 4: herbicidal effect by soil treatment (symbol H). Conditions: for H: Echinochloa crus-galli var. crus-galli, herbicidal effect grade: 320 g/ha; for Herbicidal effect grade, H: Echinochloa crus-galli var. crus-galli: application herbicide amount 320 g/ha. In outline: as §3

The test system of data set [7] is soybean. The data set can be described thus: Test Example 4: effect on crop by soil treatment (symbol d). Conditions: for d: soybean, effect grade on crop: 320 g/ha; for Effect on crop grade, d: soybean: application herbicide amount 320 g/ha. In outline: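 Plants grew in a 25° C. to 30° C. greenhouse after spot-sowing of seeds, including beet, rapeseed, wheat and rice, into sterilized diluvial soil under roughly 1.5 cm of cover soil.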

In the next data set the test system is Apera spica-venti. The data set can be described thus: Test Example 4: herbicidal effect by soil treatment (symbol L). Conditions: for L: Apera spica-venti, herbicidal effect grade: 320 g/ha; for Herbicidal effect grade, L: Apera spica-venti: application herbicide amount 320 g/ha. In a few lines: as §3
A further data set deals with Avena fatua. Nature of the data set: Test Example 5: herbicidal effect by foliage application, plastic box (symbol I). Conditions: 320 g/ha, 3 weeks after application. In outline:
as §1

Molecules are shown by their SMILES.

These results are taken from patent publication US11000033B2, “Ketone or oxime compound, and herbicide” (NISSAN CHEMICAL CORPORATION, priority 2014, dated 2021).

Consider `CON=C(C)CC1CC(OC(=O)CN(C)C(=O)c2ccccc2)=C(c2c(C)cc(C)cc2C)C1=O` (stereo not drawn) [1-139], for which, in the data set with transplanted rice plant, the “Effect grade on crop, a: transplanted rice plant” value is reported as 5 (Herbicidal ratio of 90% or more (almost completely withered)). The “M: Abutilon theophrasti, herbicidal effect (criteria 0-5)” value in the data set on Abutilon theophrasti [1] is 2 (Herbicidal ratio of 20% or higher and lower than 40%). In addition, the “d: soybean, effect on crop (criteria 0-5)” value in the data set with soybean [2] is 1 (Herbicidal ratio of 5% or higher and lower than 20%). Also, in [3], the “effect on crop b (directly sowed rice plant), grade 0-5” value is on record as 5 (Herbicidal ratio of 90% or more (almost completely withered)). The “O: Chenopodium album, herbicidal effect grade” value in the data set on Chenopodium album is 0 (Herbicidal ratio of 5% or lower (almost no effect)). In addition, the “R: Veronica persica, herbicidal effect (criteria 0-5)” value in the data set with Veronica persica was 2 (Herbicidal ratio of 20% or higher and lower than 40%). Moreover, the “M: Abutilon theophrasti, herbicidal effect grade” value in the data set with Abutilon theophrasti [4] was 4 (Herbicidal ratio of 70% or higher and lower than 90%). The “Herbicidal effect grade, A: Echinochloa oryzacola Vasing.” value in [5] was 5 (Herbicidal ratio of 90% or more (almost completely withered)). For the same compound, the “Q: Galium spurium, herbicidal effect grade” value in the data set with Galium spurium is 0 (Herbicidal ratio of 5% or lower (almost no effect)). The “c: corn, effect on crop (criteria 0-5)” value in the data set with corn is 5 (Herbicidal ratio of 90% or more (almost completely withered)). Further, the “F: Digitaria ciliaris, herbicidal effect (criteria 0-5)” value in the data set with Digitaria ciliaris was 5 (Herbicidal ratio of 90% or more (almost completely withered)). In addition, the “H: Echinochloa crus-galli var. crus-galli, herbicidal effect grade” value in data set [6] is listed as 5 (Herbicidal ratio of 90% or more (almost completely withered)). The “d: soybean, effect grade on crop” value in the data set with soybean [7] is given as 0 (Herbicidal ratio of 5% or lower (almost no effect)). Further, the “L: Apera spica-venti, herbicidal effect grade” value in the data set with Apera spica-venti is on record as 5 (Herbicidal ratio of 90% or more (almost completely withered)). The “I: Avena fatua, herbicidal effect (criteria 0-5)” value in the data set on Avena fatua is recorded as 5 (Herbicidal ratio of 90% or more (almost completely withered)).

With `CCC(Oc1ccc2ncc(Br)cc2c1)C(=O)OC1=C(c2c(C)cc(C)cc2C)C(=O)C(CC(C)=NOC)C1` (stereo not drawn) [1-140], in the data set on transplanted rice plant, the “Effect grade on crop, a: transplanted rice plant” value is 5 (Herbicidal ratio of 90% or more (almost completely withered)). The “M: Abutilon theophrasti, herbicidal effect (criteria 0-5)” value with Abutilon theophrasti [1] is 4 (Herbicidal ratio of 70% or higher and lower than 90%). Also, in the data set on soybean [2], the “d: soybean, effect on crop (criteria 0-5)” value was 3 (Herbicidal ratio of 40% or higher and lower than 70%). Moreover, in data set [3], the “effect on crop b (directly sowed rice plant), grade 0-5” value is given as 5 (Herbicidal ratio of 90% or more (almost completely withered)). The “O: Chenopodium album, herbicidal effect grade” value in the data set with Chenopodium album is 0 (Herbicidal ratio of 5% or lower (almost no effect)). In the data set on Veronica persica, the “R: Veronica persica, herbicidal effect (criteria 0-5)” value was 3 (Herbicidal ratio of 40% or higher and lower than 70%). In the data set with Abutilon theophrasti [4], the “M: Abutilon theophrasti, herbicidal effect grade” value was 5 (Herbicidal ratio of 90% or more (almost completely withered)). Besides, the “Herbicidal effect grade, A: Echinochloa oryzacola Vasing.” value in data set [5] was 5 (Herbicidal ratio of 90% or more (almost completely withered)). In the data set with Galium spurium, the “Q: Galium spurium, herbicidal effect grade” value is listed as 0 (Herbicidal ratio of 5% or lower (almost no effect)). In addition, in the data set on corn, the “c: corn, effect on crop (criteria 0-5)” value is 4 (Herbicidal ratio of 70% or higher and lower than 90%). For the same compound, the “F: Digitaria ciliaris, herbicidal effect (criteria 0-5)” value with Digitaria ciliaris is reported as 5 (Herbicidal ratio of 90% or more (almost completely withered)). Also, in [6], the “H: Echinochloa crus-galli var. crus-galli, herbicidal effect grade” value is 5 (Herbicidal ratio of 90% or more (almost completely withered)). For the same compound, the “d: soybean, effect grade on crop” value with soybean [7] is 1 (Herbicidal ratio of 5% or higher and lower than 20%). For the same compound, the “L: Apera spica-venti, herbicidal effect grade” value in the data set on Apera spica-venti was 5 (Herbicidal ratio of 90% or more (almost completely withered)). Moreover, the “I: Avena fatua, herbicidal effect (criteria 0-5)” value in the data set on Avena fatua was 5 (Herbicidal ratio of 90% or more (almost completely withered)).

For the compound `CC#Cc1cc(C)c(C2=C(O)CC(CC(=NOC)C(C)C)C2=O)c(C)c1` (stereo not drawn) [9-006], the “a (transplanted rice plant) effect on crop grade” value in the data set with transplanted rice plant is 5 (Herbicidal ratio of 90% or more (almost completely withered)). Further, the “M: Abutilon theophrasti, herbicidal effect grade” value with Abutilon theophrasti [1] was 0 (Herbicidal ratio of 5% or lower (almost no effect)). The “d: soybean, effect on crop grade” value in the data set with soybean [2] is on record as 0 (Herbicidal ratio of 5% or lower (almost no effect)). For the same compound, the “b (directly sowed rice plant) effect on crop grade” value in data set [3] is given as 5 (Herbicidal ratio of 90% or more (almost completely withered)). Further, the “Herbicidal effect grade, O: Chenopodium album” value in the data set on Chenopodium album is given as 0 (Herbicidal ratio of 5% or lower (almost no effect)). Further, the “R: Veronica persica, herbicidal effect grade” value in the data set with Veronica persica is 4 (Herbicidal ratio of 70% or higher and lower than 90%). Also, the “Herbicidal effect grade, M: Abutilon theophrasti” value in the data set with Abutilon theophrasti [4] was 0 (Herbicidal ratio of 5% or lower (almost no effect)). The “A (Echinochloa oryzacola Vasing.) herbicidal effect grade” value in data set [5] is 5 (Herbicidal ratio of 90% or more (almost completely withered)). Moreover, the “Herbicidal effect grade, Q: Galium spurium” value in the data set with Galium spurium is reported as 0 (Herbicidal ratio of 5% or lower (almost no effect)). Further, the “c: corn, effect on crop grade” value in the data set on corn is 5 (Herbicidal ratio of 90% or more (almost completely withered)). For the same compound, in the data set with Digitaria ciliaris, the “F: Digitaria ciliaris, herbicidal effect grade” value was 5 (Herbicidal ratio of 90% or more (almost completely withered)). Besides, the “Herbicidal effect grade, H: Echinochloa crus-galli var. crus-galli” value in [6] is 5 (Herbicidal ratio of 90% or more (almost completely withered)). Moreover, in the data set on soybean [7], the “Effect on crop grade, d: soybean” value is recorded as 0 (Herbicidal ratio of 5% or lower (almost no effect)). For the same compound, the “Herbicidal effect grade, L: Apera spica-venti” value in the data set on Apera spica-venti was 5 (Herbicidal ratio of 90% or more (almost completely withered)). Moreover, the “I: Avena fatua, herbicidal effect grade” value with Avena fatua is 4 (Herbicidal ratio of 70% or higher and lower than 90%).

With `CON=C(CC1CC(O)=C(c2c(C)cc(-n3cc(Cl)cn3)cc2C)C1=O)C1CC1` (stereo not drawn) [9-007], the “a (transplanted rice plant) effect on crop grade” value with transplanted rice plant was 5 (Herbicidal ratio of 90% or more (almost completely withered)). In the data set with Abutilon theophrasti [1], the “M: Abutilon theophrasti, herbicidal effect grade” value is 0 (Herbicidal ratio of 5% or lower (almost no effect)). In the data set with soybean [2], the “d: soybean, effect on crop grade” value is reported as 0 (Herbicidal ratio of 5% or lower (almost no effect)). The “b (directly sowed rice plant) effect on crop grade” value in data set [3] was 5 (Herbicidal ratio of 90% or more (almost completely withered)). The “Herbicidal effect grade, O: Chenopodium album” value with Chenopodium album is recorded as 0 (Herbicidal ratio of 5% or lower (almost no effect)). Besides, the “R: Veronica persica, herbicidal effect grade” value in the data set with Veronica persica was 4 (Herbicidal ratio of 70% or higher and lower than 90%). Further, the “Herbicidal effect grade, M: Abutilon theophrasti” value in the data set with Abutilon theophrasti [4] is given as 0 (Herbicidal ratio of 5% or lower (almost no effect)). Also, the “A (Echinochloa oryzacola Vasing.) herbicidal effect grade” value in data set [5] is 5 (Herbicidal ratio of 90% or more (almost completely withered)). In addition, the “Herbicidal effect grade, Q: Galium spurium” value in the data set on Galium spurium is on record as 0 (Herbicidal ratio of 5% or lower (almost no effect)). In addition, in the data set with corn, the “c: corn, effect on crop grade” value was 5 (Herbicidal ratio of 90% or more (almost completely withered)). In the data set with Digitaria ciliaris, the “F: Digitaria ciliaris, herbicidal effect grade” value is recorded as 5 (Herbicidal ratio of 90% or more (almost completely withered)). For the same compound, the “Herbicidal effect grade, H: Echinochloa crus-galli var. crus-galli” value in data set [6] was 3 (Herbicidal ratio of 40% or higher and lower than 70%). Moreover, in the data set with soybean [7], the “Effect on crop grade, d: soybean” value is reported as 0 (Herbicidal ratio of 5% or lower (almost no effect)). Further, the “Herbicidal effect grade, L: Apera spica-venti” value with Apera spica-venti was 5 (Herbicidal ratio of 90% or more (almost completely withered)). Further, the “I: Avena fatua, herbicidal effect grade” value with Avena fatua is given as 5 (Herbicidal ratio of 90% or more (almost completely withered)).
